Results: patent US6670187B2, “Mutant Plk protein and gene encoding the same” (Riken, priority 2000, dated 2003)
Values belong to the molecule of their own block, whether it stands above or below them. Peptide text beside a SMILES is read from it. * marks the point of attachment. Cbz = O=C(OCc1ccccc1)*

Key:
[1] = system: Plk protein; experiment: Western blotting of Plk protein level after geldanamycin treatment; type: cell-based, human; details: for Sensitivity of Plk to GA: Western blotting
Protocol: The cells were lysed with TENSV buffer (Schulte, T. W., et al., J. Biol. Chem., 270, 24585-24588, 1995; Hutchison, K. A., et al., J. Biol. Chem., 267, 13952-13957, 1992) at 4° C. with sonication. The lysates were subjected to electrophoresis on an SDS polyacrylamide gel. Proteins were transferred to Immobilon PVDF membrane (Millipore) and immunoblotted with anti-Plk antibody (Zymed and Santa Cruz), anti-Hsp90 antibody (AC88; Stressgen), anti-GST antibody (Santa Cruz), anti-α-tubulin antibody (Amersham), or anti-Raf-1 antibody (Santa Cruz). Detection was performed with an enhanced chemiluminescence reagent (Pierce).
The immune complexes were collected by immunoprecipitation using anti-Plk antibody and electrophoresed on an SDS-polyacrylamide gel. […] Aliquots of cell lysates were immunoprecipitated with an anti-Plk or anti-Hsp90 antibody. In the same manner, aliquots of non-immunoprecipitated cell lysates were used for Western blotting.
Aliquots of cell lysates were immunoblotted with the indicated antibodies.

[2] = system: U937 cells; experiment: Cell viability of geldanamycin-treated U937 cells; type: cell-based, human; details: 100 nM
[3] = system: Hsp90; experiment: In vitro binding assay of GST-fused Plk proteins with HL-60 lysate, Hsp90 detected; set-up: species or system human; details: 1 μg GST-fused protein, Western blotting
Protocol: (§1) The PCR products were cloned into pGEM-T Easy vector (Promega) and nucleotide sequence analysis was carried out by using the dideoxynucleotide chain-termination procedure with an Applied Biosystems automated sequencer. The sequence was confirmed to be identical with a previous report (Golsteyn, R., et al., J. Cell Sci., 107, 1509-1517, 1994). Plk cDNA was inserted into pGEX-2T, and GST-fused Plk was expressed in DH5α with 0.1 mM isopropyl β-D-thiogalacto-pyranoside.
(§2) For the binding assay, 1 μg of GST-fused proteins was incubated with the lysate of HL-60 cells (1 mg) in TENSV buffer. GST-fused Plk proteins were precipitated with glutathione-agarose (Sigma). Hsp90 or α-tubulin associated with GST-fused Plk proteins was detected by Western blotting using an anti-Hsp90 or anti-α-tubulin antibody.
(§3) The circle stands for the GST protein, the dotted bar for the kinase domain (residues 53-305) and the black box for the polo-box (residues 410-439). b; GST-fused Plks, expressed in Escherichia coli, were collected with glutathione-agarose, and incubated with the lysate of HL-60 cells. After incubation, GST-fused Plks were precipitated with glutathione-agarose. Hsp90 or α-tubulin associated with GST-fused Plks was detected by Western blotting using an anti-Hsp90 or anti-α-tubulin antibody.

[4] = system: α-tubulin; experiment: In vitro binding assay of GST-fused Plk proteins with HL-60 lysate, α-tubulin detected; set-up: species or system human; details: 1 μg GST-fused protein, Western blotting
Protocol: as §1, §2, §3

Molecule: CC(C)C[C@@H](C=O)NC(=O)[C@H](CC(C)C)NC(=O)[C@H](CC(C)C)NC(=O)OCc1ccccc1 [MG132] (Cbz-Leu-Leu-Leu-aldehyde)
geldanamycin-induced destabilization of Plk protein ([1]; co-treatment with proteasome inhibitor): inhibited

Molecule: COC1=C2C[C@@H](C)C[C@H](OC)[C@H](O)[C@@H](C)/C=C(\C)[C@H](OC(N)=O)[C@@H](OC)/C=C\C=C(/C)C(=O)NC(=CC1=O)C2=O [geldanamycin]
Sensitivity of Plk to GA ([1]; A431 cells, Plk S487G, P509S): − | Sensitivity of Plk to GA ([1]; A549 cells, Plk D457G): − | Sensitivity of Plk to GA ([1]; HL-60 cells, wt Plk): + (Plk protein decreased after GA treatment.) | Sensitivity of Plk to GA ([1]; HeLa cells, wt Plk): + (Plk protein decreased after GA treatment.) | Sensitivity of Plk to GA ([1]; Hep G2 cells, Plk N496S, R512W): − | Sensitivity of Plk to GA ([1]; Jurkat cells, wt Plk): + (Plk protein decreased after GA treatment.) | Sensitivity of Plk to GA ([1]; K562 cells, wt Plk): + (Plk protein decreased after GA treatment.) | Sensitivity of Plk to GA ([1]; MKN74 cells, Plk E569K): − | Sensitivity of Plk to GA ([1]; U937 cells, wt Plk): + (Plk protein decreased after GA treatment.) | cell viability ([2]; 12 hours): without decreasing cell viability | cell viability (majority of cells died) ([2]; after 2 days): 15.4±3.2%

Molecule: full-length Plk: GST-fused human full-length wild-type Plk expressed in Escherichia coli
binding to Hsp90 [3]: can bind

More lines, now with the values ahead:

binding to Hsp90 [3]: can bind
Molecule: K82R: GST-fused kinase negative Plk mutant

association of tubulin with Plk [4]: little effect | binding to Hsp90 [3]: unable to bind
Molecule: Plk/A431: GST-fused mutant Plk from A431 cells (S487G, P509S in C-terminus)

association of tubulin with Plk [4]: little effect | binding to Hsp90 [3]: unable to bind
Molecule: Plk/Hep G2: GST-fused mutant Plk from Hep G2 cells (N496S, R512W in C-terminus)
